`O=[N+]([O-])C=Cc1ccccc1Cl`: the logP came out at 2.85.

Molecule `Brc1cccc(Br)c1NC1=NCCN1` returned a logP of 1.96. Molecule `CN(N=O)C(=O)N(C)c1ccccc1` displayed a logP of 1.58. As for `Clc1ccc(Cl)c(N=C2NCCN2)c1`, the logP turned out to be 2.04. For the molecule `CCCC(=O)NC(=O)C1CCC1`, the logP turned out to be 0.41. For the molecule `C[N+](C)(C)Cc1cccc(N)c1.[Br-]`, the logP is -2.5. The same measure for `COc1ccc(CCCC(=O)O)cc1`: 2.33; for `COCc1c(OC)cc(Cc2cnc(N)nc2N)cc1OC`: 1.19. For `CN(C)C(=O)c1cc(N2CC2)c([N+](=O)[O-])cc1[N+](=O)[O-]`, the logP was found to be 0.63. On to `CC1=CC(=O)N2C=CCCC2(C)N1` (configuration not stated), for which the logP turned out to be 0.69. The same measure for `Cc1cc(C)cc(O[Si]23OCCN(CCO2)CCO3)c1`: 0.46; for `CN(C)CCCC(c1ccccc1)c1ccc(C(C)(C)C)cc1` (configuration not stated): 5.72; for `CC(=O)Nc1cccc(N=NN(C)C)c1`: 1.61. As for `CCCCCCCCCC[n+]1ccc(C)cc1C.[I-]`, the logP was determined as 0.54. `CCOn1c(=O)[nH]c(C)c(Br)c1=O` had a logP of 0.11. In the case of `CCC(=O)N(C)SN(C)C(=O)Oc1cccc2c1OC(C)(C)C2` it was 3.2; in that of `O=S1(=O)NC(C2CC3C=CC2C3)=Nc2ccccc21` (configuration not stated), 2.06. In the case of `CCCCCC[n+]1ccccc1.[Br-]` it was -2.03; in that of `COc1ccccc1NC(=O)C(Cl)Cl`, 2.41. The same measure for `O=C1CN=C(c2ccc(C(F)(F)F)cc2)c2ccccc2N1`: 3.34. Molecule `CCCCCCNC(=O)NN` displayed a logP of 0.46.

`O=C1CC(C(=O)O)Oc2ccc(Cl)cc21` (configuration not stated) yielded a logP of 1.77. `O=[N+]([O-])C=Cc1cccc(Cl)c1` gave a logP of 2.57. Take `CCOC(=O)CCCn1nnc2ccccc21`: the logP is 1.86.

In turn, `COc1c(OCc2ccccc2)cc(Cc2cnc(N)nc2N)cc1OCc1ccccc1` showed a logP of 3.89.

As for `c1ccc(-c2ncnc3ccccc23)cc1`, the logP worked out at 2.71. The molecule `COC(=O)C(C#N)=NNc1cc(C(F)(F)F)ccc1Cl` returned a logP of 4.42.

On to `NC(=O)COCc1ccco1`, for which the logP is -0.11. `NC(=O)NC1OC(=O)c2ccccc21` (configuration not stated): the logP stood at 0.49. On to `COc1cc(Cc2cnc(N)nc2N)cc(OC)c1C(=O)OC(C)C`, for which the logP turned out to be 1.72. For the molecule `CC=CCOC(=O)C1C(C=C(C)C)C1(C)C` (configuration not stated), the logP was found to be 5.09. In the case of `CCC(C)C(=O)NN` (configuration not stated) it was -0.33; in that of `CC(C)c1nnc(N2CCOCC2)n(N)c1=O`, 0.49; in that of `S=c1[nH]cnc2[nH]cnc12`, 0.01. For `Cn1c(C(C)(C)O)cnc1[N+](=O)[O-]`, the logP worked out at 0.43. `Cc1ccc2c([N+](=O)[O-])cc[n+]([O-])c2c1` gave a logP of 1.42. In the case of `CCc1ccc(N=NN(C)C(C)=O)cc1`, the logP is 3.36.

Regarding `COc1cccc(C=C(C(C)=O)C(C)=O)c1`, the logP was found to be 1.79.

In the case of `CNC1=NC(=O)C(=Cc2ccc([N+](=O)[O-])o2)S1`, the logP came out at 1.16. In the case of `CC(C)N1CCOC(c2cccc(Cl)c2)C1` (configuration not stated) it was 3.27; in that of `COc1cc(S(=O)(=O)CCN2CCOCC2)cc(OC)c1OC`, 1.29; in that of `COCN1C(=O)CN=C(c2ccccc2)c2cc(Cl)ccc21`, 2.86. For the molecule `CCCCCCCC[n+]1ccccc1.[I-]`, the logP was -0.84. As to `O=CNC=Cc1ccccc1`, the logP turned out to be 1.95. Take `COC(=O)C(C#N)=NNc1cc(C(F)(F)F)cc(C(F)(F)F)c1`: the logP came out at 5.02. The molecule `CCCCCC[n+]1ccccc1C.[I-]` gave a logP of -1.71.

`COc1ccc(C(c2ccc(OC)cc2)C(Cl)Cl)cc1` returned a logP of 4.47.

As for `COc1ccccc1C(=O)NCCCN(C)C`, the logP came out at 1.27. The same measure for `FC1C(Cl)C(Cl)C(Cl)C(Cl)C1Cl` (configuration not stated): 3.19; for `CC(=O)Nc1cc(C)c(O)c(C)c1C`: 0.82. Take `CC(C)NC(=O)NN`: the logP was -1.3. With `CCOC(=O)c1ccc(Cl)nn1`, the log partition coefficient (logP) turned out to be 0.12.

With `CCOCC(O)Cn1ccnc1[N+](=O)[O-]` (configuration not stated), the logP came out at 0.04. With `CC1CCN(N=O)CC1`, the logP is 1.05. In the case of `Cc1ccccc1C1=NCC(=O)N(C)c2ccc(Cl)cc21` it was 3.03. In the case of `CSc1nc(C)cc(C)n1` it was 1.86; in that of `CC1=Nc2c(Cl)cccc2S(=O)(=O)N1`, 0.72; in that of `CCCCCCCCCCOC(=O)N(C)SN(C)C(=O)ON=C(C)SC`, 6.2. In the case of `Cc1ccccc1C(=N)c1ccccc1C` it was 3.31. The molecule `O=C1CCCN1Cc1ccccc1` showed a logP of 1.25. The same measure for `COc1cc(Cc2cnc(N)nc2N)cc(OC)c1OCC#N`: 0.72.

On to `COc1cc(OC)c(OC)cc1Cc1cnc(N)nc1N`, for which the logP stood at 1.17. The same measure for `O=S1(=O)NC=Nc2cc(Cl)ccc21`: 1.01. As for `COc1ccccc1C(=O)NN`, the logP was 0.25. The same measure for `CCOC(=O)C(C#N)=NNc1cc(Cl)c(Cl)cc1Cl`: 5.21.

The molecule `Cn1c(=O)c(=O)n(C)c2ccccc21` registered a log partition coefficient (logP) of 0.08. The same measure for `CC(=O)c1ccccc1OC(=O)N(C)C`: 0.93. The same measure for `CC(=O)Nc1cc(C(F)(F)F)cc(C(F)(F)F)c1Br`: 3.51; for `CNc1nc(=O)cc(-c2ccc([N+](=O)[O-])o2)s1`: 0.86; for `CNC(=O)ON=CC(C)(C)[N+](=O)[O-]`: 0.36.

Regarding `CCOC(=O)C(C#N)=NNc1cccc(Cl)c1`, the logP amounted to 3.94. `CSc1nnc(C)c(=O)n1N` had a logP of -0.16. In turn, `O=C1CN=C(c2ccccc2Br)c2cc(Br)ccc2N1` showed a logP of 3.3. For the molecule `CSC(C)=NOC(=O)N(C)SN(C)C(=O)c1ccc(Cl)cc1Cl`, the logP worked out at 3.2. The logP values of the last two molecules are within 0.2 log units of each other. `NC1CC2CCC1c1ccccc12` (configuration not stated) returned a logP of 2.29. In turn, `O=[N+]([O-])C=Cc1ccccc1[N+](=O)[O-]` gave a logP of 1.8. On to `CS(=O)(=O)c1cccc(NC(N)=O)c1`, for which the logP is -0.12. Molecule `O=NN(CCCl)C(=O)NCCCCNC(=O)N(CCCl)N=O` registered a logP of 0.9. The same measure for `Nc1cccc(O[Si]23OCCN(CCO2)CCO3)c1`: -1.15; for `CC12CC3CC(C1)CC(N)(C3)C2`: 3.01; for `C#CC(C)(C)N(C)C(C)C`: 2.29. In the case of `O=S(=O)(Nc1ccc(F)cc1F)C(F)(F)F`, the logP is 3.06.

As to `COC1C(Cl)C(Cl)C(OC)C(Cl)C1Cl` (configuration not stated), the logP was found to be 3.15. Molecule `CCc1nnc(SC)n(N)c1=O` displayed a logP of 0.46.

For the molecule `CC1N=C(c2ccccc2Cl)c2cc(Cl)ccc2N(C)C1=O` (configuration not stated), the logP was found to be 3.4. Molecule `CCc1cnc(C=Cc2ccc([N+](=O)[O-])o2)nc1` had a logP of 1.55.

`CNP(=O)(OC)Oc1ccc([N+](=O)[O-])cc1` (configuration not stated) gave a logP of 1.27. The molecule `Cc1ccc(C=C[N+](=O)[O-])cc1` registered a logP of 2.66. `CN1C(=O)CN=C(c2ccccc2)c2cc(N)ccc21` yielded a logP of 1.46.

For `CCCCN(C)CCS(=O)(=O)c1cc(OC)c(OC)c(OC)c1`, the logP is 2.05. The same measure for `CC(C)c1ccc(C(O)C(CO)NC(=O)C(Cl)Cl)cc1` (configuration not stated): 2.24; for `CNC(=O)Oc1ccc(C(C)(C)C)c(C)c1`: 3.38. In turn, `COP(=O)(OC)Oc1ccc([N+](=O)[O-])cc1Cl` gave a logP of 1.83.

With `CC(=O)c1cccc(N2C(N)=NC(N)=NC2(C)C)c1`, the logP is -0.22. Molecule `O=C(O)COc1ccc(C2CCCC2)cc1` gave a logP of 3.41. As for `O=C1CCC(=O)N1c1ccccc1Cl`, the logP came out at 0.56. `COC(=O)C(C#N)=NNc1ccccc1` had a logP of 2.59.

On to `CSc1nnc(C2CCCCO2)c(=O)n1N` (configuration not stated), for which the logP was 0.38. `Oc1ccnc2c(O)cccc12` gave a log partition coefficient (logP) of 0.62. On to `O=C1CCC(=O)N1c1cccc(Br)c1`, for which the logP was determined as 1.09. For `CNP(=O)(OC)Oc1ccc(Cl)cc1Cl` (configuration not stated), the logP was found to be 2.41. In the case of `Nc1nc(N)nc(-c2cc(F)ccc2Br)n1` it was 1.45. In the case of `CC(C)CN(CC(C)C)C(=O)C=Cc1ccc2c(c1)OCO2`, the logP was found to be 4.37. Regarding `O=C(NCc1ccccc1O)c1ccccc1`, the logP was found to be 2.55. The same measure for `NN=C1c2ccccc2C(=O)C1C(=O)C(c1ccccc1)c1ccccc1` (configuration not stated): 3.62; for `N#CSc1ccccc1`: 2.54; for `COc1cc(C)nc(-n2nc(C)cc2OC)n1`: 1.26.

Consider `COc1ccc(Cc2cnc(N)nc2N)cc1I`, for which the logP is 2.09. `COc1cccc(OC2OC(CO)C(O)C(O)C2O)c1` (configuration not stated) had a logP of -0.52. In turn, `CCNCNC(=O)c1ccccc1` came in with a logP of 0.56. In the case of `CCc1cccc(CC)c1NC1=NCCN1` it was 2.48; in that of `CCC(=O)c1ccc(OC(=O)NC)cc1`, 1.55; in that of `C=CC(CC)OC(N)=O` (configuration not stated), 1.09. As to `CC(C)=CC1C(C(=O)OCc2ccc(C#N)cc2)C1(C)C` (configuration not stated), the logP turned out to be 4.91. In turn, `CC(=O)Oc1cccc(C(F)(F)F)c1` came in with a logP of 2.63. As to `COc1cc(Cc2cnc(N)nc2N)cc(OC)c1Cl`, the logP came to 1.87.

Regarding `COc1cc(Cc2cnc(N)nc2N)c(Cl)c(OC)c1`, the logP came to 2.13.

In turn, `CON(C)C(=O)Nc1ccc(OCc2ccccc2)cc1` yielded a logP of 3.11.

On to `N=C(N)NC(=O)Nc1ccc(Cl)c(Cl)c1`, for which the logP came out at 2.39. On to `O=C1C(O)=C(CC=C(Cl)Cl)C(=O)c2ccccc21`, for which the logP came out at 3.1. Turning to `CC(=O)Nc1cc2c(cc1Cl)S(=O)(=O)NC(C)=N2`, the logP worked out at 0.53. On to `O=C(O)COc1cc(F)cc(I)c1`, for which the logP worked out at 2.42. With `Cc1ccc(N2C(N)=NC(N)=NC2(C)C)cc1`, the logP is 0.85. In the case of `O=C(CNC(=O)c1ccccc1)Oc1cccc(C(F)(F)F)c1`, the logP turned out to be 3.3.

For the molecule `CCOC(=O)c1c(OCC)cc(Cc2cnc(N)nc2N)cc1OCC`, the logP is 2.28. `O=NN(CCCl)C(=O)NC1CS(=O)(=O)CS(=O)(=O)C1` registered a logP of -0.94. Consider `CC(C)=CC1C(C(=O)OCc2cccc([N+](=O)[O-])c2)C1(C)C` (configuration not stated), for which the logP was 5.2.

The logP is the decadic logarithm of the partition coefficient of the neutral form, usually between octanol and water. A lower logP goes with lower lipophilicity.

These data come from the OPERA property sets (Mansouri et al. 2018).
